The source made the active and inactive calls.
Columns and labels:
[1] = Luminescence Cell-Based Dose Response HTS to Identify Inhibitors of 5'UTR Stem-Loop Driven Prion Protein mRNA Translation in H4 Neuroglioblastoma Cells. [Related pubchem assays: 1827 (Project Summary), 1813 (Primary HTS)]; format: functional
[2] = inhibitors of intracellular T. cruzi replication, confirmation, NIH3T3 host cells, beta-gal luminescence (AID 2044); format: functional, cell-based;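 note: intracellular parasites grown in NIH/3T3 mouse fibroblasts as host cells; luminescent beta-galactosidase reporter signal from transgenic T. cruzi replicating inside host cells; inhibitors lower the luminescence signal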
[3] = cytotoxicity in HEK-293T cells, dose response, cytotoxicity control for TCR NF-kB inhibitor project, luminescence, T-cell screen hits (AID 489026); format: functional, cell-based;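 note: cells exposed to compound about 14 hours before the viability readout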
[4] = inhibitors of firefly luciferase expression or activity, dose response, H4 neuroglioma cells, luminescence (AID 1990); format: functional, cell-based
[5] = inhibitors of SNCA 5'UTR-driven reporter translation, confirmation, H4 neuroglioma cells, luminescence (AID 1988); format: functional, cell-based
BJ [6] = experiment: cytotoxicity toward BJ-TERT-LT-ST fibroblasts, dose response, cell-based, RAS-independent, luminescence (AID 1935); format: functional; conditions: Homo sapiens;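 note: BJ fibroblasts immortalized with TERT plus LT and ST oncogenes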
BJ [7] = experiment: cytotoxicity toward BJ-TERT fibroblasts, dose response, cell-based, RAS-independent, luminescence (AID 1933); format: functional; conditions: Homo sapiens
[8] = cytotoxicity toward DRD oncogenic fibroblasts, dose response, cell-based, non-viral oncogenic, luminescence (AID 1934); format: functional; conditions: Homo sapiens
BJ [9] = experiment: cells; format: functional, cell-based; conditions: Homo sapiens
cells [10] = format: functional, cell-based
cells [11] = format: functional, cell-based; remark: listed apart in the source
Coagulation factor XII = target: T1, Coagulation factor XII (Homo sapiens, UniProt P00748); format: functional;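 note: activated factor XIIa alpha cleaving a fluorogenic AMC peptide substrate; inhibitor potency from loss of enzyme activity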
T1 sequence (P00748 whole entry): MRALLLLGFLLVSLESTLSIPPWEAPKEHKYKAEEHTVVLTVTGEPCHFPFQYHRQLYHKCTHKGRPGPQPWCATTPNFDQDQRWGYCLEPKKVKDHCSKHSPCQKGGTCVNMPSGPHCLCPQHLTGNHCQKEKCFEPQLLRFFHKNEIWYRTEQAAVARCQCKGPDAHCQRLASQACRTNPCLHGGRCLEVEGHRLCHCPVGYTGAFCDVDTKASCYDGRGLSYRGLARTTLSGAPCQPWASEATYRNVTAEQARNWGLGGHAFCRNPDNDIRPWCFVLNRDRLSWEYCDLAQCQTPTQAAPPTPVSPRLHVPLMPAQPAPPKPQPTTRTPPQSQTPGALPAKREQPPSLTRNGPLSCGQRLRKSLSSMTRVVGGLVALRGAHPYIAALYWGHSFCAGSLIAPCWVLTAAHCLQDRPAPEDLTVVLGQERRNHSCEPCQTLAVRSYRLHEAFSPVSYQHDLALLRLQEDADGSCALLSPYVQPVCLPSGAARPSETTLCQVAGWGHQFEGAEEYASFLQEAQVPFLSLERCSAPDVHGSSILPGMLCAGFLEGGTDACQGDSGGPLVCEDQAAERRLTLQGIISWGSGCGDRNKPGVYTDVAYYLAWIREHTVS

INS1 = experiment: beta cell apoptosis inhibitors, cytokine rescue, dose response, luminescence, retest (AID 449756); format: functional, cell-based; conditions: Rattus norvegicus;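 note: cell death triggered by IL-1 beta plus TNF-alpha plus IFN-gamma mixture; protective hits raise ATP signal compared with cytokine alone wells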
[12] = control 3'UTR Renilla luciferase suppression, dose response, counter-screen for Shn3 inhibitor project, cell-based, Clone20-Shn3RL, cherry-picked (AID 624133); format: functional
[13] = HepG2 cell cytotoxicity, dose response, cytotoxicity control for Shn3 inhibitor project, CellTiter-Glo, cherry-picked (AID 624134); format: functional, cell-based
[14] = Shn3 3'UTR reporter inhibitors, dose response, cell-based, Clone20 osteoblasts, firefly luciferase, cherry-picked (AID 624132); format: functional;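 note: firefly luciferase luminescence from reporter carrying the Shn3 3'UTR in osteoblasts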
[15] = Luminescence Cell-Based Dose Retest to Confirm Inhibitors of Cancer Stem Cells. [Related pubchem assays (depositor defined):AID2717, AID2721]; format: functional; conditions: Homo sapiens
Cytochrome P450 2C19 = Cytochrome P450 2C19 (Homo sapiens, UniProt P33261); experiment: Cytochrome panel assay with activity outcomes. Panel member name: p450-cyp2c19 Compounds with AC50 equal or less than 10 uM are considered active; format: functional; conditions: read-out: AC50
[16] = Luminescence Cell-Based Dose Confirmation HTS to Identify Inhibitors of Platelet Dense Granule Release. [Related pubchem assays: 1663 (Primary HTS), 1678 (Summary of Project)]; format: functional
Cytochrome P450 1A2 = target: T2, Cytochrome P450 1A2 (Homo sapiens, UniProt P05177);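 note: PubChem cytochrome P450 panel assay, CYP1A2 panel member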
T2 sequence (P05177 whole entry): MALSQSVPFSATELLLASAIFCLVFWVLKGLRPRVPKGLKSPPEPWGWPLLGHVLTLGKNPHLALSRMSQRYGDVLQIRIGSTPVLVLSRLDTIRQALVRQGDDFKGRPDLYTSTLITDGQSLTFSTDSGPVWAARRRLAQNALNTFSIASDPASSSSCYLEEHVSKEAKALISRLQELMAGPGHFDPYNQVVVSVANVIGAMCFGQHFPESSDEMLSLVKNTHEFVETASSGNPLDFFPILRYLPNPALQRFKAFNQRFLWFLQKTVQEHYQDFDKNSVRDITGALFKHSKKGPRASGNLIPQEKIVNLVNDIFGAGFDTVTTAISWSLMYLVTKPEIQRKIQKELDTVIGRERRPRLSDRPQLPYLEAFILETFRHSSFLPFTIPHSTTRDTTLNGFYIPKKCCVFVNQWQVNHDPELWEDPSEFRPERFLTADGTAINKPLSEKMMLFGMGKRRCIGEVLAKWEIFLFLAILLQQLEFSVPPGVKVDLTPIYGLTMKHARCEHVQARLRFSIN

[17] = target: Luciferin 4-monooxygenase (Photinus pyralis, UniProt P08659); experiment: firefly luciferase enzyme inhibitors, dose response, biochemical, luminescence (AID 1891)
Cytochrome P450 2C9 = Cytochrome P450 2C9 (Homo sapiens, UniProt P11712)
Protein RecA = target: T3, Protein RecA (Mycobacterium tuberculosis, UniProt P9WHJ3); experiment: Fluorescence Cell-Free Homogeneous Dose Retest to Identify Inhibitors of RecA-Intein Splicing Activity. [Related pubchem assays (depositor defined):AID2097, AID2223, AID489010, AID492950]; format: functional
T3 sequence (P9WHJ3 whole entry): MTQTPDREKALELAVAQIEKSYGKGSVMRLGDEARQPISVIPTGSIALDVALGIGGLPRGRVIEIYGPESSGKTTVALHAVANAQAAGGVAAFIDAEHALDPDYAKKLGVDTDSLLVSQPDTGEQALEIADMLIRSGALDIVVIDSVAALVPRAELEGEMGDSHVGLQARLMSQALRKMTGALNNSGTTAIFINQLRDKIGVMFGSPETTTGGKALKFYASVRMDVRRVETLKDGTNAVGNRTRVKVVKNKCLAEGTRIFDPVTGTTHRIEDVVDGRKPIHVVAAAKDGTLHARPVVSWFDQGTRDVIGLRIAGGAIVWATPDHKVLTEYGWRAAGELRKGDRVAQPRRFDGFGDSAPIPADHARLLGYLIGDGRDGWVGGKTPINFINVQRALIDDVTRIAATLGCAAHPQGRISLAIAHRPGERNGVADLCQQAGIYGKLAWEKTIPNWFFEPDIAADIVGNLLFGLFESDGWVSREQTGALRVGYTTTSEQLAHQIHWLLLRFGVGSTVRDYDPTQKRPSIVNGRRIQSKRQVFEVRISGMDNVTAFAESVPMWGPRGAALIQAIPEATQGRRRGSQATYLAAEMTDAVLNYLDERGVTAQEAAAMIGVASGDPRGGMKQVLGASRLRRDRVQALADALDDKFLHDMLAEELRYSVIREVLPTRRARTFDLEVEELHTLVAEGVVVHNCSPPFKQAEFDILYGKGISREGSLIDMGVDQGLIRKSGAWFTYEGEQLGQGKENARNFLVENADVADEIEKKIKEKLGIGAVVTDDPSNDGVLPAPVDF

[18] = target: T4, Replicative DNA helicase DnaB (Mycobacterium tuberculosis, UniProt P9WMR3); experiment: DnaB intein splicing inhibitors, dose response, biochemical, cell-free fluorescence (AID 449749); format: functional
T4 sequence (P9WMR3 whole entry): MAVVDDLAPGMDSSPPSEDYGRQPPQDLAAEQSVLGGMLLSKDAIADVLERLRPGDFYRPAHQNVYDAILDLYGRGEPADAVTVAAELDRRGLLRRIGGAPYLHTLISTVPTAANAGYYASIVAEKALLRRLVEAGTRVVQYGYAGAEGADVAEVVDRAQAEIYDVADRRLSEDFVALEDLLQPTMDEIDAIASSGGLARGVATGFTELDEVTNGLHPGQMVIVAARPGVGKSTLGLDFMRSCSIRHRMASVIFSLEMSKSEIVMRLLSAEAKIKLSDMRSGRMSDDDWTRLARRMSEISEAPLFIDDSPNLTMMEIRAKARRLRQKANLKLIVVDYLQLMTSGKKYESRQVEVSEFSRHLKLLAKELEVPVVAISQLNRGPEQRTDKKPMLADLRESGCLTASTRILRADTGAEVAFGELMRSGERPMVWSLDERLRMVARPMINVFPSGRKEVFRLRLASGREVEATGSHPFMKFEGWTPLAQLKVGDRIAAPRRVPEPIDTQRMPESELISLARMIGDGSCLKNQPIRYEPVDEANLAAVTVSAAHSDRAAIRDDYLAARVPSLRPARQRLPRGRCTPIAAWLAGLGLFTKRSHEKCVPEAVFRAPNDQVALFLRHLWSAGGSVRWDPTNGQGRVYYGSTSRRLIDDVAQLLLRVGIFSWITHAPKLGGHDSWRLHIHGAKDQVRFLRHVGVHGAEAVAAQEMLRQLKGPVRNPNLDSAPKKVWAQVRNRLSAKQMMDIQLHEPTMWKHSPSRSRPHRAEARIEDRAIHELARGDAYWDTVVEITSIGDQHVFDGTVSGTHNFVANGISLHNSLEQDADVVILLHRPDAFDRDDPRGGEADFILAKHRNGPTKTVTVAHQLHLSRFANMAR

Chain of Luciferin 4-monooxygenase (P08659 whole entry): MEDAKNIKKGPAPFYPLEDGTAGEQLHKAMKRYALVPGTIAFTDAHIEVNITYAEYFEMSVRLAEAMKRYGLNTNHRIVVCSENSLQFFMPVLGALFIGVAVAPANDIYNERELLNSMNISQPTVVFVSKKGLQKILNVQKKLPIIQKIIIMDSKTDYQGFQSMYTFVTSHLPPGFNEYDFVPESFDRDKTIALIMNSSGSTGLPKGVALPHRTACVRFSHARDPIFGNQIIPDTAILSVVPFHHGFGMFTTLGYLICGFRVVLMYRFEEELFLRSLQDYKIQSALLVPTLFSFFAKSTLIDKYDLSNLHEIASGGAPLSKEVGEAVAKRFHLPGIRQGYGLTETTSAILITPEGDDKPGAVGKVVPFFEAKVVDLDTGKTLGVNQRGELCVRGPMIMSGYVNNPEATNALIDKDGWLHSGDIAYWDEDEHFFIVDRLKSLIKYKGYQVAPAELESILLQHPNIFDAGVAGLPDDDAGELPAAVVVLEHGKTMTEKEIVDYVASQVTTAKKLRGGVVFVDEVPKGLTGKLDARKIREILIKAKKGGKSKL
Chain of Cytochrome P450 2C19 (P33261 whole entry): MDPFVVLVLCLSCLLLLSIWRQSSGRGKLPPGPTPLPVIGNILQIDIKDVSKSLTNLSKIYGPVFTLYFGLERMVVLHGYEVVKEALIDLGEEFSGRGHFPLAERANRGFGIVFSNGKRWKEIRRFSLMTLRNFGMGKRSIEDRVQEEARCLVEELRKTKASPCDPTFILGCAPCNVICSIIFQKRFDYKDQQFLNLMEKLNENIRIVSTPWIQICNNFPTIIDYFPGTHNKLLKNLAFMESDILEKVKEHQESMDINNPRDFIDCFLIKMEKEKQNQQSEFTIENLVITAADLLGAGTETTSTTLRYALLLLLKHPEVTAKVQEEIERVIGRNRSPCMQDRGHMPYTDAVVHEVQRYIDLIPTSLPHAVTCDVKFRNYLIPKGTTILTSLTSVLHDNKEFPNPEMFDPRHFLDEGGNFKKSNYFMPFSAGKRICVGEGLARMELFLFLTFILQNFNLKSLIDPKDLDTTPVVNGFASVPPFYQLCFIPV
Chain of Cytochrome P450 2C9 (P11712 whole entry): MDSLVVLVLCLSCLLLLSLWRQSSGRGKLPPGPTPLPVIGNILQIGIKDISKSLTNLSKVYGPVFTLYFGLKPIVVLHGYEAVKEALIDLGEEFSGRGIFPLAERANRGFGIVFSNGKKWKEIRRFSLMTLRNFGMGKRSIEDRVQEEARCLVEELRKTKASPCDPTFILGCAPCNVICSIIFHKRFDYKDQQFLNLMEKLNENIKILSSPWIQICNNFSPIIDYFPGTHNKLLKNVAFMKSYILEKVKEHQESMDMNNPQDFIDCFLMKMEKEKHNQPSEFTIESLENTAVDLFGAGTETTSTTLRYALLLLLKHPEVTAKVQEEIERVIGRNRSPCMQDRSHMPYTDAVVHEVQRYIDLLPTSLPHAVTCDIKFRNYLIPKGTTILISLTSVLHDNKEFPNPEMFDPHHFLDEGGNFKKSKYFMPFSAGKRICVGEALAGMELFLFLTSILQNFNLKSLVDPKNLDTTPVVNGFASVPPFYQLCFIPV

SMILES: Cc1c(C(=O)OCC(C)C)[nH]c2c1C(=O)CC(c1cccs1)C2 (configuration not stated)
- EC50 [1]: > 60 µM (not active)
- EC50 [2]: 4.91 µM (active)
- IC50 [3]: > 80 µM (inactive)
- EC50 [4]: 8.93 µM (inconclusive)
- EC50 [5]: 3.13 µM (active)

SMILES: Cc1nc(-c2ccc(C(=O)Nc3ccccc3F)cc2)cs1
- EC50 (BJ [6]): 19.9 µM (active)
- EC50 (BJ [7]): 13.7 µM (active)
- EC50 [8]: 11 µM (active)
- EC50 (BJ [9]): 10.8 µM (active)

SMILES: COC(=O)c1ccc(C)c(NC(=O)CN(c2cc(OC)ccc2OC)S(C)(=O)=O)c1
- EC50 (BJ [6]): > 150 µM (not active)
- EC50 (BJ [7]): > 150 µM (not active)
- EC50 [8]: > 150 µM (inconclusive)
- EC50 (BJ [9]): > 150 µM (not active)

SMILES: COc1ccc2nc(NC(=O)Nc3ccccc3OC)sc2c1
- EC50 (cells [10]): 4.4 µM (active)
- EC50 (cells [11]): > 350 µM (not active)

SMILES: CC1=NC(C#N)=C(C#N)NC(C)(C)C1
- EC50 (cells [10]): > 350 µM (not active)
- EC50 (cells [11]): > 350 µM (not active)

SMILES: COc1cc(Cl)c(C)cc1NC(=O)CSC
- IC50 (Coagulation factor XII): > 50 µM (inactive)

SMILES: CC(C)(C)c1cc(C(=O)N/N=C/c2ccccc2O)n(-c2ccccc2)n1
- AC50 (INS1): 3.37 µM (active)
- AC50 [12]: 2.18 µM (active)
- AC50 [13]: 5.66 µM (active)
- AC50 [14]: 2.25 µM (active)
- AC50 [15]: 3.05 µM (active)

SMILES: O=C(NN=Cc1c(O)ccc2ccccc12)c1ccc2c(c1)OCO2
- IC50 [3]: > 80 µM (inactive)

SMILES: CC(=O)NCCC(=O)Nc1cc(S(=O)(=O)N2CCOCC2)ccc1N1CCOCC1
- EC50 (cells [10]): > 350 µM (not active)
- EC50 (cells [11]): > 350 µM (not active)

SMILES: Cc1c(C(c2cccc([N+](=O)[O-])c2O)c2c(C)n(C)n(-c3ccccc3)c2=O)c(=O)n(-c2ccccc2)n1C
- AC50 (Cytochrome P450 2C19): 35.5 µM (inconclusive)
- EC50 [16]: > 112 µM (not active)
- AC50 (Cytochrome P450 1A2): 15.8 µM (inconclusive)
- EC50 [17]: > 112 µM (not active)
- AC50 (Cytochrome P450 2C9): 0.00562 µM (inconclusive)

SMILES: CCCCCCCCCC(=O)Nn1cnc2ccccc2c1=O
- IC50 (Coagulation factor XII): > 50 µM (inactive)

SMILES: COC(CN(C(=O)CCl)C(C(=O)NC1CCCCC1)c1ccc(Cl)cc1)OC (configuration not stated)
- EC50 (Protein RecA): 1.81 µM (active)
- EC50 (cells [10]): > 350 µM (not active)
- EC50 (cells [11]): > 350 µM (not active)
- AC50 [18]: 15.8 µM (active)

SMILES: CCOc1ccccc1NC(=O)COC(=O)Cc1cccs1
- EC50 [16]: > 112 µM (not active)
- EC50 [17]: > 112 µM (not active)

SMILES: CCN(Cc1ccccc1)C(=O)CCNS(=O)(=O)c1ccc2c(c1)CC(C)N2C(C)=O (configuration not stated)
- EC50 (cells [10]): > 350 µM (not active)
- EC50 (cells [11]): > 350 µM (not active)

SMILES: CN1CCN(c2ccc(CNS(=O)(=O)Cc3ccc(Cl)cc3)cc2)CC1
- IC50 (Coagulation factor XII): > 50 µM (inactive)

SMILES: COc1ccccc1CNC(=O)c1cccc(NC(=O)c2ccccc2)c1
- EC50 (cells [10]): 56.2 µM (active)
- EC50 (cells [11]): > 350 µM (not active)

SMILES: COc1cccc2sc(NC(=O)c3ccc(S(=O)(=O)N4CCOCC4)cc3)nc12
- IC50 (Coagulation factor XII): > 50 µM (inactive)

SMILES: Cc1cc(=O)oc(C)c1C(=O)NCCNC(=O)c1c(C)cc(=O)oc1C
- EC50 [16]: 28.8 µM (active)
- EC50 [17]: > 112 µM (not active)

SMILES: O=C(C[n+]1cc(-c2ccccc2)n2c1CCC2)Nc1nc(-c2ccccc2)cs1
- IC50 (Coagulation factor XII): > 50 µM (inactive)

From ChEMBL document CHEMBL1201862, “PubChem BioAssay data set” (2004)
